From the supplement of paper PMC13380429

Experiments:
[1] = test system: A549-ACE2; assay: drug-induced phospholipidosis relative to tamoxifen; higher = more phospholipidosis
[2] = test system: A549-ACE2 infected with SARS-CoV-2; assay: morphology score (similarity to uninfected cells); higher = more like uninfected cells; details: 24 h
[3] = test system: Calu-3; assay: drug sensitivity score (DSS) for viability; higher = more toxic; extreme values may be limits of the assay; details: 72 h
[4] = test system: Vero E6; assay: as above; details: 72 h
[5] = test system: U2OS; assay: as above; details: 72 h
[6] = test system: HepG2; assay: as above; details: 72 h
[7] = test system: Caco-2; assay: as above; details: 72 h
[8] = test system: Calu-3; assay: cell viability relative to DMSO; higher = less toxic; details: 72 h
[9] = test system: Vero E6; assay: as above; details: 72 h
[10] = test system: U2OS; assay: as above; details: 72 h
[11] = test system: HepG2; assay: as above; details: 72 h
[12] = test system: Caco-2; assay: as above; details: 72 h
[13] = test system: A549-ACE2 infected with SARS-CoV-2; assay: cell count relative to DMSO; higher = less toxic; details: 24 h
[14] = test system: Calu-3; assay: relative viability EC50 (midpoint between 100% and the lowest measured viability); higher = less toxic; details: 72 h
[15] = test system: Vero E6; assay: as above; details: 72 h
[16] = test system: U2OS; assay: as above; details: 72 h
[17] = test system: Caco-2; assay: as above; details: 72 h
[18] = test system: A549-ACE2 infected with SARS-CoV-2; assay: SARS-CoV-2 infection rate relative to DMSO; higher = more infection; details: 24 h
[19] = test system: A549-ACE2; assay: phospholipidosis EC50; higher = less potent phospholipidosis inducer
[20] = test system: HepG2; assay: relative viability EC50 (midpoint between 100% and the lowest measured viability); higher = less toxic; details: 72 h

`Cc1[nH]c(/C=C2\C(=O)Nc3ccc(S(=O)(=O)N(C)c4cccc(Cl)c4)cc32)c(C)c1C(=O)N1CCN(C)CC1` showed a drug-induced phospholipidosis ([1]; 0.3 µM, 24 h) of 22.5%, a drug-induced phospholipidosis ([1]; 0.3 µM, 48 h) of 12.7% and a drug-induced phospholipidosis ([1]; 0.3 µM, 72 h) of 9.3%. It also gave a drug-induced phospholipidosis ([1]; 0.833333 µM, 24 h) of 42.3%, a drug-induced phospholipidosis ([1]; 0.833333 µM, 48 h) of 30.6% and a drug-induced phospholipidosis ([1]; 0.833333 µM, 72 h) of 20.7%. For the same molecule, the drug-induced phospholipidosis ([1]; 3.33333 µM, 24 h) was 133%, the drug-induced phospholipidosis ([1]; 3.33333 µM, 48 h) was 129% and the drug-induced phospholipidosis ([1]; 3.33333 µM, 72 h) was 128%. For the same molecule, the drug-induced phospholipidosis ([1]; 6.66667 µM, 24 h) was 230%, the drug-induced phospholipidosis ([1]; 10 µM, 24 h) was 269% and the drug-induced phospholipidosis ([1]; 10 µM, 48 h) was 333%. For the same molecule, the drug-induced phospholipidosis ([1]; 30 µM, 24 h) was 324%, the drug-induced phospholipidosis ([1]; 30 µM, 48 h) was 340% and the morphology score ([2]; 0.3 µM) was 0.29. It also gave a morphology score ([2]; 3 µM) of 0.61, a morphology score ([2]; 10 µM) of 0.45 and a morphology score ([2]; 30 µM) of 0.53. For the same molecule, the drug sensitivity score [3] was 0.3, the drug sensitivity score [4] was 0 and the drug sensitivity score [5] was 0. For the same molecule, the drug sensitivity score [6] was 1.3, the drug sensitivity score [7] was 0.5 and the cell viability ([8]; 1 nM) was 106%. The cell viability ([8]; 10 nM) was 93.5%, the cell viability ([8]; 100 nM) was 112% and the cell viability ([8]; 1000 nM) was 101%. The cell viability ([8]; 10000 nM) was 83.8%, the cell viability ([9]; 1 nM) was 101% and the cell viability ([9]; 10 nM) was 102%. The cell viability ([9]; 100 nM) was 94.3%, the cell viability ([9]; 1000 nM) was 107% and the cell viability ([9]; 10000 nM) was 88.1%. It also gave a cell viability ([10]; 1 nM) of 104%, a cell viability ([10]; 10 nM) of 98.2% and a cell viability ([10]; 100 nM) of 106%. For the same molecule, the cell viability ([10]; 1000 nM) was 101%, the cell viability ([10]; 10000 nM) was 91% and the cell viability ([11]; 1 nM) was 106%. For the same molecule, the cell viability ([11]; 10 nM) was 105%, the cell viability ([11]; 100 nM) was 93.5% and the cell viability ([11]; 1000 nM) was 103%. The cell viability ([11]; 10000 nM) was 66.5%, the cell viability ([12]; 1 nM) was 96% and the cell viability ([12]; 10 nM) was 98.5%. The cell viability ([12]; 100 nM) was 99.9%, the cell viability ([12]; 1000 nM) was 97.5% and the cell viability ([12]; 10000 nM) was 85.2%. The cell count ([13]; 0.3 µM) was 94%, the cell count ([13]; 3 µM) was 105% and the cell count ([13]; 10 µM) was 70%. For the same molecule, the cell count ([13]; 30 µM) was 85%, the “relative viability EC50” value [14] was over 10 µM and the “relative viability EC50” value [15] was over 10 µM. The “relative viability EC50” value [16] was over 10 µM, the “relative viability EC50” value [17] was over 10 µM and the SARS-CoV-2 infection rate ([18]; 0.3 µM) was 89%. For the same molecule, the SARS-CoV-2 infection rate ([18]; 3 µM) was 46%, the SARS-CoV-2 infection rate ([18]; 10 µM) was 20% and the SARS-CoV-2 infection rate ([18]; 30 µM) was 34%. For the same molecule, the “phospholipidosis EC50” value ([19]; 24 h) was 4.77 µM and the “phospholipidosis EC50” value ([19]; 48 h) was 3.94 µM.

`O=c1[nH]c2ccccc2n1C1CCN(CCCC(c2ccc(F)cc2)c2ccc(F)cc2)CC1` [pimozide] gave a drug-induced phospholipidosis ([1]; 0.3 µM, 24 h) of 4.09%, a drug-induced phospholipidosis ([1]; 0.3 µM, 48 h) of 4.99% and a drug-induced phospholipidosis ([1]; 0.3 µM, 72 h) of 6.59%. The drug-induced phospholipidosis ([1]; 0.833333 µM, 24 h) was 5.84%, the drug-induced phospholipidosis ([1]; 0.833333 µM, 48 h) was 5.4% and the drug-induced phospholipidosis ([1]; 0.833333 µM, 72 h) was 6.94%. It also gave a drug-induced phospholipidosis ([1]; 3.33333 µM, 24 h) of 24.5%, a drug-induced phospholipidosis ([1]; 3.33333 µM, 48 h) of 17.8% and a drug-induced phospholipidosis ([1]; 3.33333 µM, 72 h) of 22.7%. It also gave a drug-induced phospholipidosis ([1]; 6.66667 µM, 24 h) of 59.8%, a drug-induced phospholipidosis ([1]; 6.66667 µM, 48 h) of 56.9% and a drug-induced phospholipidosis ([1]; 6.66667 µM, 72 h) of 60.3%. For the same molecule, the drug-induced phospholipidosis ([1]; 10 µM, 24 h) was 64.4%, the drug-induced phospholipidosis ([1]; 10 µM, 48 h) was 81% and the drug-induced phospholipidosis ([1]; 10 µM, 72 h) was 85.3%. It also gave a drug-induced phospholipidosis ([1]; 30 µM, 24 h) of 78%, a drug-induced phospholipidosis ([1]; 30 µM, 48 h) of 99.5% and a drug-induced phospholipidosis ([1]; 30 µM, 72 h) of 111%. The morphology score ([2]; 0.3 µM) was -0.1, the morphology score ([2]; 3 µM) was 0.46 and the morphology score ([2]; 10 µM) was 0.79. It also gave a morphology score ([2]; 30 µM) of 0.31, a drug sensitivity score [3] of 0 and a drug sensitivity score [4] of 0. For the same molecule, the drug sensitivity score [5] was 0, the drug sensitivity score [6] was 0 and the drug sensitivity score [7] was 0. The cell viability ([8]; 1 nM) was 100%, the cell viability ([8]; 10 nM) was 95.5% and the cell viability ([8]; 100 nM) was 95.2%. It also gave a cell viability ([8]; 1000 nM) of 100%, a cell viability ([8]; 10000 nM) of 93.9% and a cell viability ([9]; 1 nM) of 106%. The cell viability ([9]; 10 nM) was 88.7%, the cell viability ([9]; 100 nM) was 104% and the cell viability ([9]; 1000 nM) was 94.2%. For the same molecule, the cell viability ([9]; 10000 nM) was 104%, the cell viability ([10]; 1 nM) was 99.4% and the cell viability ([10]; 10 nM) was 102%. The cell viability ([10]; 100 nM) was 99.5%, the cell viability ([10]; 1000 nM) was 104% and the cell viability ([10]; 10000 nM) was 94.6%. For the same molecule, the cell viability ([11]; 1 nM) was 119%, the cell viability ([11]; 10 nM) was 114% and the cell viability ([11]; 100 nM) was 108%. The cell viability ([11]; 1000 nM) was 85.2%, the cell viability ([11]; 10000 nM) was 104% and the cell viability ([12]; 1 nM) was 92.2%. It also gave a cell viability ([12]; 10 nM) of 99.1%, a cell viability ([12]; 100 nM) of 98% and a cell viability ([12]; 1000 nM) of 94.6%. For the same molecule, the cell viability ([12]; 10000 nM) was 95.7%, the cell count ([13]; 0.3 µM) was 92% and the cell count ([13]; 3 µM) was 108%. The cell count ([13]; 10 µM) was 113%, the cell count ([13]; 30 µM) was 86% and the “relative viability EC50” value [14] was over 10 µM. For the same molecule, the “relative viability EC50” value [15] was over 10 µM, the “relative viability EC50” value [16] was over 10 µM and the “relative viability EC50” value [20] was over 10 µM. For the same molecule, the “relative viability EC50” value [17] was over 10 µM, the SARS-CoV-2 infection rate ([18]; 0.3 µM) was 99% and the SARS-CoV-2 infection rate ([18]; 3 µM) was 83%. For the same molecule, the SARS-CoV-2 infection rate ([18]; 10 µM) was 20%, the SARS-CoV-2 infection rate ([18]; 30 µM) was 33% and the “phospholipidosis EC50” value ([19]; 24 h) was 4.66 µM. For the same molecule, the “phospholipidosis EC50” value ([19]; 48 h) was 6.29 µM and the “phospholipidosis EC50” value ([19]; 72 h) was 6.67 µM.
